According to patent publication US20220380430A1, “Non-Transgenic Functional Rescue of Neuropeptides” (Worcester Polytechnic Institute, priority 2021, published 2022):
No end group written: not given here.

Tested on: flp-3 lof males
Test: Single worm attraction assay (SWAA) to ascr #8 after FLP-3 peptide rescue-by-feeding
Type: in vivo, C. elegans
Conditions: flp-3 lof males raised on peptide; in words
Description: The outer forty wells of a 48-well suspension culture plate (Olympus Plastics, Cat #: 25-103) were seeded with 200 μL of standard NGM agar. To prepare the plates for the assay, they were acclimated to room temperature, at which point each well was seeded with 65 μL of OP50 E. coli. The assay plates were then transferred to a 37° C. incubator with the lid tilted for 4 h to allow the bacterial culture to dry on the agar. Once the bacterial culture dried, the lid was replaced the plate was stored at 20° C. until used in the assay. Fifty to sixty L4 worms were segregated by sex and stored at 20° C. for 5 h to overnight to be assayed as young adults. 0.8 μL of either vehicle control or ascaroside #8 was placed in the center of the well corresponding to that condition within the quadrant being tested, following a random block design (FIG. 11A). A single worm was placed in each of the 10 wells to be assayed, and the plate was transferred to a light source and camera and recorded for 15 m. This process was repeated for all four quadrants. Each strain and sex were assayed over five plates assayed on at least three different days. Raw dwell time values were calculated by subtracting the time a worm exited the cue (center of the well in spatial controls), from the time it entered, as in the SRA. This was determined per visit, and the average dwell time was calculated for each animal in the quadrant. Averages of the four-quadrant means were determined per plate, and a minimum of five plates were assayed per strain/condition. The mean raw dwell time across five plates was calculated and used for statistical analyses and graphical display. The average dwell time in the ascaroside was divided by the average dwell time within the vehicle control per plate to generate a fold-change. To transform the data, the log of this fold-change was taken, and the average log(fold-change) was used for statistical analyses and graphical display. […]

NSKLHRGGGRSRTSGSTGSMASHARGSPGLQ-NH2 [SCRAMBLE, scramble control peptide expressed in E. coli DH5α, negative control, reference compound]
rescue of attraction to ascr #8 (dwell time, log(fold-change)): does not affect behavior
